Data reported in patent US20110039762A1, “TARGETED ANTIMICROBIAL MOIETIES” (C3 JIAN, INC., priority 2009, published 2011).
Entries after “also recorded” stand apart in the source; their conditions may differ.

Assays:
B. subtilis = assay: Kill or inhibit growth/proliferation; morphology, biofilm and growth disruption (Tables 5, 6); assay type: cell-based, Bacillus subtilis; design: key: A: Peptide aggregates; B: Less hyphal formation; Clumps; Diffuse clumps and small polyps; F: Diffuse growth; H: Thin; I: Growth inhibition; Microcolony formation; Rippled; Small polyps; Thick; W: Halo formation on top, microlonies on bottom; also: test concentration or dose not given here
C. jejuni = assay: as above; assay type: cell-based, Campylobacter jejuni; design: key: A: Peptide aggregates; B: Less hyphal formation; Clumps; Diffuse clumps and small polyps; F: Diffuse growth; H: Thin; I: Growth inhibition; Microcolony formation; Rippled; Small polyps; Thick; W: Halo formation on top, microlonies on bottom
[1] = tested on: microorganisms (e.g., bacteria, yeasts, fungi); assay: Targeting peptide binding to target microorganisms (Table 3); conditions: preferably 1x PBS; for Target(s) (microorganisms bound by the targeting peptide): peptide binding in aqueous buffers varied by peptide solubility
microorganisms = assay: Peptides having multiple activities (targeting/binding, antimicrobial, growth or phenotype altering)
Source text: In certain embodiments, peptides described herein can have multiple activities. Thus for example, a peptide can have both binding/targeting activity and antimicrobial activity. Such peptides can be used, e.g., in a chimeric construct, for any or all of these properties. Thus, for example, a peptide designated “B” in Table 8 can be used as a targeting peptide. If it is also designated G or M it can also be used for antimicrobial activity.

S. epidermidis = assay: Kill or inhibit growth/proliferation; morphology, biofilm and growth disruption (Tables 5, 6); assay type: cell-based, Staphylococcus epidermidis; design: key: A: Peptide aggregates; B: Less hyphal formation; Clumps; Diffuse clumps and small polyps; F: Diffuse growth; H: Thin; I: Growth inhibition; Microcolony formation; Rippled; Small polyps; Thick; W: Halo formation on top, microlonies on bottom; also: test concentration or dose not given here
S. pneumoniae = assay: as above; assay type: cell-based, Streptococcus pneumoniae; design: key: A: Peptide aggregates; B: Less hyphal formation; Clumps; Diffuse clumps and small polyps; F: Diffuse growth; H: Thin; I: Growth inhibition; Microcolony formation; Rippled; Small polyps; Thick; W: Halo formation on top, microlonies on bottom
MRSA = assay: as above; assay type: cell-based, Methicillin-resistant Staphylococcus aureus; design: key: A: Peptide aggregates; B: Less hyphal formation; Clumps; Diffuse clumps and small polyps; F: Diffuse growth; H: Thin; I: Growth inhibition; Microcolony formation; Rippled; Small polyps; Thick; W: Halo formation on top, microlonies on bottom
[2] = microorganism the targeting peptide binds, binding in aqueous buffers varied by peptide solubility
[3] = microorganism(s) the targeting peptide binds, binding in aqueous buffers depending on peptide solubility
[4] = microorganism(s) the targeting peptide binds, peptide binding conducted in aqueous buffers varied by peptide solubility
For Organism, effect (morphology, biofilm and growth disruption) in this document: test concentration or dose not given here.
For Organism, effect in this document: test concentration or dose not given here.

Row | Substance | Organism, effect (B. subtilis) | Organism, effect (C. jejuni) | Activities (microorganisms) | Organism, effect (S. epidermidis) | other results
1 | PF-008: peptide having multiple activities (chain 1 MIEIGSIAYLNGGSKKYNHILNQENR; chain 2 MIEIGSIAYLNGGSKKYNHILNQENR; Peptide with targeting and/or antimicrobial activity) | B. subtilis (D) | C. jejuni (R) | G B |  | Target(s) [1, 2]: S. epidermidis and M. luteus and MRSA and C. jejuni
2 | PF-061: peptide having multiple activities (chain 1 GYNSYKAVQDVKTHSEEQRVTAKK; chain 2 GYNSYKAVQDVKTHSEEQRVTAKK; Peptide with targeting and/or antimicrobial activity) | B. subtilis (R) | C. jejuni (R) | G B | S. epidermidis (R) | Organism, effect (S. pneumoniae): S. pneumoniae (R); Target(s) [1, 2]: S. epidermidis; also recorded: S. pneumoniae
3 | PF-069: peptide having multiple activities (FDPVPLKKDKSASKHSHKHNH; Peptide with targeting and/or antimicrobial activity) | B. subtilis (D) | C. jejuni (R) | G B |  | Target(s) [1, 2]: E. faecalis; also recorded: C. jejuni
4 | PF-292: peptide having multiple activities (SFVSTTVRLIFEESKRYKF; Peptide with targeting and/or antimicrobial activity) | B. subtilis (C) |  | G B | S. epidermidis (C) | Target(s) [1, 3]: S. epidermidis; also recorded: B. subtilis; also recorded: B. fragilis
5 | PF-296 (GAFGMPSIKTNTICGEKGKFISACDAWLSNLK; Peptide with targeting and/or antimicrobial activity) | B. subtilis (C) |  |  | S. epidermidis (C) | 
6 | PF-297: peptide having multiple activities (ISKGIDDIVYVINKILSIGNIFKIIKRK; Peptide with targeting and/or antimicrobial activity) | B. subtilis (C) |  | G B | S. epidermidis (C) | Target(s) [1, 3]: S. epidermidis; also recorded: B. subtilis; also recorded: B. fragilis
7 | PF-301: peptide having multiple activities (GIVLIGLKLIPLLANVLN; Peptide with targeting and/or antimicrobial activity) | B. subtilis (C) |  | G B | S. epidermidis (C) | Target(s) [1, 3]: C. difficile
8 | PF-318 (MGRHLWNPSYFVATVSENTEEQIRKYINNQKKQVK; Peptide with targeting and/or antimicrobial activity) | B. subtilis (C) |  |  | S. epidermidis (C) | 
9 | PF-335 (AAYPIEDWSDWYEDFFIMLSNI; Peptide with targeting and/or antimicrobial activity) | B. subtilis (C) |  |  | S. epidermidis (C) | 
10 | PF-339 (KKIDILINKYMYLSK; Peptide with targeting and/or antimicrobial activity) | B. subtilis (C) |  |  | S. epidermidis (C) | 
11 | PF-342 (AFSGVYKTLIVYTRRK; Peptide with targeting and/or antimicrobial activity) | B. subtilis (C) |  |  | S. epidermidis (C) | 
12 | PF-549: peptide having multiple activities (chain 1 TGIGPIARPIEHGLDS; chain 2 TGIGPIARPIEHGLDS; Peptide with targeting and/or antimicrobial activity) | B. subtilis (D) |  | G B |  | Organism, effect (MRSA): MRSA (C); Target(s) [1, 4]: E. coli; also recorded: C. albicans; also recorded: S. pneumoniae; also recorded: C. jeikeium
13 | PF-558: peptide having multiple activities (chain 1 ADAPPPLIVRYS; chain 2 ADAPPPLIVRYS; Peptide with targeting and/or antimicrobial activity) | B. subtilis (D) | C. jejuni (H) | G B | S. epidermidis (M) | Organism, effect (MRSA): MRSA (C); Organism, effect (S. pneumoniae): S. pneumoniae (R); Target(s) [1, 4]: S. epidermidis; also recorded: E. coli; also recorded: C. albicans; also recorded: C. jeikeium; also recorded: C. jejuni
14 | PF-559: peptide having multiple activities (chain 1 SRPGKPGGVSIDVSRDRQDILSNYP; chain 2 SRPGKPGGVSIDVSRDRQDILSNYP; Peptide with targeting and/or antimicrobial activity) | B. subtilis (C) | C. jejuni (A) | G B |  | Target(s) [1, 4]: S. epidermidis; also recorded: M. luteus; also recorded: C. albicans; also recorded: C. jeikeium; also recorded: C. jejuni
15 | PF-560: peptide having multiple activities (chain 1 FGNPFRGFTLAMEADFKKRK; chain 2 FGNPFRGFTLAMEADFKKRK; Peptide with targeting and/or antimicrobial activity) | B. subtilis (D) | C. jejuni (A) | G B |  | Organism, effect (MRSA): MRSA (C); Organism, effect (S. pneumoniae): S. pneumoniae (R); Target(s) [1, 4]: S. epidermidis; also recorded: M. luteus; also recorded: E. coli; also recorded: S. pneumoniae; also recorded: C. jeikeium; also recorded: C. jejuni
16 | PF-563: peptide having multiple activities (chain 1 RPELDNELDVVQNSASLDKLQASYN; chain 2 RPELDNELDVVQNSASLDKLQASYN; Peptide with targeting and/or antimicrobial activity) | B. subtilis (D) | C. jejuni (H) | G B |  | Organism, effect (S. pneumoniae): S. pneumoniae (H); Target(s) [1, 4]: S. epidermidis; also recorded: M. luteus; also recorded: C. jeikeium
17 | PF-655: peptide having multiple activities (chain 1 DAPCFDDQFGDLKCQMC; chain 2 DAPCFDDQFGDLKCQMC; Peptide with targeting and/or antimicrobial activity) |  |  | G B |  | Organism, effect (morphology, biofilm and growth disruption) (B. subtilis): B. subtilis (H); Organism, effect (morphology, biofilm and growth disruption) (MRSA): MRSA (M); Organism, effect (morphology, biofilm and growth disruption) (S. epidermidis): S. epidermidis (R); Organism, effect (morphology, biofilm and growth disruption) (S. pneumoniae): S. pneumoniae (H); Target(s) (microorganisms bound by the targeting peptide) [1]: M. smegmatis
18 | PF-659 (chain 1 TVIST; chain 2 TVIST; Peptide with targeting and/or antimicrobial activity) |  |  |  |  | Organism, effect (morphology, biofilm and growth disruption) (B. subtilis): B. subtilis (H); Organism, effect (morphology, biofilm and growth disruption) (MRSA): MRSA (R); Organism, effect (morphology, biofilm and growth disruption) (S. epidermidis): S. epidermidis (M); Organism, effect (morphology, biofilm and growth disruption) (S. pneumoniae): S. pneumoniae (C); Target(s) (microorganisms bound by the targeting peptide) [1]: Mycobacteria spp
19 | SIGSMIGMYSFRHKTKHIKFTFGIPFILFLQFLLVYFYILK [PF-319] | B. subtilis (C) |  | G B | S. epidermidis (C) | Target(s) [1, 3]: S. epidermidis; also recorded: B. subtilis; also recorded: C. difficile
